Measurements published in US7928078B2, “Conjugates of immune cell specific macrolide compounds with anti-inflammatory compounds for improved cellular targeting of anti-inflammatory therapy” (GlaxoSmithKline Istrazivacki Centar Zagreb D.O.O., priority 2001, dated 2011).

Biological target: T1, alpha isoform of human glucocorticoid receptor (Homo sapiens, UniProt P04150)
T1 construct: expressed in transfected cells; host or cells: COS-1 cells, transient transfection with pcDNA3.1 hygro(+) carrying the GR alpha cDNA
T1 sequence (P04150 1-777): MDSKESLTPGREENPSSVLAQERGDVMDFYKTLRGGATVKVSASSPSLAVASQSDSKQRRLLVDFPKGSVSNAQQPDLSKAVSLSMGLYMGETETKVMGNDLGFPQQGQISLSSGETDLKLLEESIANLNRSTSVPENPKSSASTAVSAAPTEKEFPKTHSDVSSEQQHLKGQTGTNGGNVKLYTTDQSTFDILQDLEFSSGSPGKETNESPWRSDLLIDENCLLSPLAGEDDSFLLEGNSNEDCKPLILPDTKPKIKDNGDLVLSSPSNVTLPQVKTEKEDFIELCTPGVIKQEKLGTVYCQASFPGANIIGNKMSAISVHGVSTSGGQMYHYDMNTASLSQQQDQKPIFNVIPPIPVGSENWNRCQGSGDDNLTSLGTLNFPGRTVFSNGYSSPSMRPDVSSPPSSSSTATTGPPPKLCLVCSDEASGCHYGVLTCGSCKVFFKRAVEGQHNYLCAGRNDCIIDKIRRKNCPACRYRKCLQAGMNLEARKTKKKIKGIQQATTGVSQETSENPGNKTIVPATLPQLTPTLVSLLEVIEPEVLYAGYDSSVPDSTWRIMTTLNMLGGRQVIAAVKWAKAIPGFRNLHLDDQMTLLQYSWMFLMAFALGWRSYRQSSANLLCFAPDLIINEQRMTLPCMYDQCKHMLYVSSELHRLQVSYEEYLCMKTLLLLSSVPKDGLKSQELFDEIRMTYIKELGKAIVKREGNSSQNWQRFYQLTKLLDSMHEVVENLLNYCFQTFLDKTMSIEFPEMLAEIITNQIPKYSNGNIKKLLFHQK
Experiment: Assay of binding to the human glucocorticoid receptor ([3H] dexamethasone competition in transfected COS-1 cells)
Conditions: 24 nM [3H] dexamethasone
From the text: Assay of Binding to the Human Glucocorticoid Receptor
The gene for alpha isoform of human glucocorticoid receptor was cloned by reverse polymerase chain reaction. The total RNA was isolated from human peripheral blood lymphocites according to the instructions of the manufacturer (Qiagen), transcripted into cDNA with AMV reverse transcriptase (Roche) and the gene was multiplied by specific primers
The obtained reaction product was cloned into XhoI/BamHI site of Bluescript KS plasmid (Stratagene), subjected to sequencing by dideoxy fluorescent method with M13 and M13 rev primers (Mycrosynth) and then it was cloned into XhoI/BamHI site of pcDNA3.1 hygro(+)plasmid (Invitrogen). 1×10^5 COS-1 cells were seeded onto a 12-well plate (Falcon) in DMEM medium (Life Technologies) with 10% FBS (Biowhitaker) and cultivated up to a 70% confluence at 37° C. in an atmosphere with 5% CO2. The medium was removed and 1 μg of DNA, 7 μl of PLUS reagent and 2 μl of Lipofectamine (Life Technologies) in 500 μl DMEM were added per well. The cells were incubated at 37° C. in an atmosphere with 5% CO2 and after 5 hours the same volume of 20% FBS/DMEM was added. After 24 hours the medium was completely changed. 48 hours after the transfection, the test compounds in different concentrations and 24 nM [^3H] dexamethasone (Pharmacia) in DMEM medium were added. The cells were incubated for 90 minutes at 37° C. in an atmosphere with 5% CO2, washed three times with PBS buffer (Sigma), cooled to 4° C. (pH=7.4) and then lyzed in Tris buffer (pH=8.0) (Sigma) with 0.2% SDS (Sigma). After the addition of UltimaGold XR (Packard) scintillation liquid, the residual radioactivity was read in a Tricarb (Packard) β-scintillation counter.

SMILES	competition with radioactive dexamethasone in the binding site on the glucocorticoid receptor
CC[C@H]1OC(=O)[C@H](C)[C@@H](O)[C@H](C)[C@@H](O[C@@H]2O[C@H](C)C[C@@H](N(C)C)[C@H]2OC(=O)CCCCOC(=O)[C@@]2(O)[C@H](C)CC3C4C[C@H](F)C5=CC(=O)C=C[C@]5(C)[C@@]4(Cl)[C@@H](O)C[C@@]32C)[C@](C)(O)C[C@@H](C)CN(C)[C@H](C)[C@@H](O)[C@]1(C)O (stereo partly drawn) [Compound 27]	able to compete with radioactive dexamethasone

Tested on: mouse T-cell hybridoma 13
Experiment: Assay of inhibition of mouse T-cell hybridoma 13 proliferation as a result of apoptose induction
Assay type: cell-based
Conditions: [3H] thymidine incorporation
Experimental: Assay of Inhibition of Mouse T-Cell Hybridoma 13 Proliferation as a Result of Apoptose Induction
In a 96-well plate triplicates of test steroid dilution in RPMI medium (Immunoloski zavod) with […] were performed. To the solutions of compounds 20 000 cells per well were added and incubated overnight at 37° C. in an atmosphere with 5% CO2, then 1 μCi of [^3H] thymidine (Pharmacia) was added and it was incubated for additional 3 hours. The cells were harvested by sucking over GF/C filter (Packard). Onto each well 30 μl of Microscynt O scintillation liquid (Packard) were added and the incorporated radioactivity was measured on a β-scintillation counter (Packard). The specifity of apoptose induction by glucocorticoids was proven by antagonising the proliferation inhibition with mifepristone (Sigma).

SMILES	inhibition of cell hybridoma 13 proliferation
CC[C@H]1OC(=O)[C@H](C)[C@@H](O)[C@H](C)[C@@H](O[C@@H]2O[C@H](C)C[C@@H](N(C)C)[C@H]2OC(=O)CCCCOC(=O)[C@@]2(O)[C@H](C)CC3C4C[C@H](F)C5=CC(=O)C=C[C@]5(C)[C@@]4(Cl)[C@@H](O)C[C@@]32C)[C@](C)(O)C[C@@H](C)CN(C)[C@H](C)[C@@H](O)[C@]1(C)O (stereo partly drawn) [Compound 27]	demonstrated an inhibition

Tested on: interleukin-2 production induced by the stimulation via CD3 receptor
Experiment: Assay of inhibition of interleukin-2 production
Assay type: cell-based, mouse
Conditions: not given
Experimental: Assay of Inhibition of Interleukin-2 Production
Onto a 96-well plate (Nunc) 15 ng of 2C11 antibodies (Pharmingen) per well were added and left to adsorb in PBS buffer (pH=7.4) overnight at 4° C. PBS was removed, the plate was washed with RPMI medium and then 50,000 cells per well were added and incubated in the medium with and without a dilution of the test compounds. The concentration of IL-2 in the supernatant was measured by ELISA specific for mouse IL-2 (R&D Systems).

SMILES	inhibition of interleukin-2 production
CC[C@H]1OC(=O)[C@H](C)[C@@H](O)[C@H](C)[C@@H](O[C@@H]2O[C@H](C)C[C@@H](N(C)C)[C@H]2OC(=O)CCCCOC(=O)[C@@]2(O)[C@H](C)CC3C4C[C@H](F)C5=CC(=O)C=C[C@]5(C)[C@@]4(Cl)[C@@H](O)C[C@@]32C)[C@](C)(O)C[C@@H](C)CN(C)[C@H](C)[C@@H](O)[C@]1(C)O (stereo partly drawn) [Compound 27]	demonstrate an inhibition

Tested on: not given
Experiment: not given
Conditions: not given

SMILES	melting point [°C]
CC[C@H]1OC(=O)[C@H](C)[C@@H](O[C@@H]2C[C@](C)(OC)[C@H](O)C(C)O2)[C@H](C)[C@@H](O[C@@H]2O[C@H](C)C[C@@H](N(C)C)[C@H]2O)[C@](C)(O)C[C@@H](C)CN(CCCNC(=O)[C@@]2(O)[C@H](C)CC3C4C[C@H](F)C5=CC(=O)C=C[C@]5(C)[C@@]4(Cl)[C@@H](O)C[C@@]32C)[C@H](C)[C@@H](O)[C@]1(C)O (stereo partly drawn)	194 to 202
CC[C@H]1OC(=O)[C@H](C)[C@@H](O[C@@H]2C[C@](C)(OC)[C@H](O)C(C)O2)[C@H](C)[C@@H](O[C@@H]2O[C@H](C)C[C@@H](N(C)C)[C@H]2O)[C@](C)(O)C[C@@H](C)CN(CCCNC(=O)[C@@]23OC(C)(C)O[C@@H]2CC2C4C[C@H](F)C5=CC(=O)C=C[C@]5(C)[C@@]4(F)[C@@H](O)C[C@@]23C)[C@H](C)[C@@H](O)[C@]1(C)O (stereo partly drawn)	178
CC[C@H]1OC(=O)C(C)[C@@H](O)[C@H](C)[C@@H](O[C@@H]2O[C@H](C)C[C@@H](N(C)C)[C@H]2O)[C@](C)(O)C[C@@H](C)CN(CCCNC(=O)[C@@]2(O)[C@H](C)CC3C4C[C@H](F)C5=CC(=O)C=C[C@]5(C)[C@@]4(Cl)[C@@H](O)C[C@@]32C)[C@H](C)[C@@H](O)[C@]1(C)O (stereo partly drawn)	130 to 132
CC[C@H]1OC(=O)[C@H](C)[C@@H](O)[C@H](C)C(O[C@@H]2O[C@H](C)C[C@@H](N(C)C)[C@H]2O)[C@](C)(O)C[C@@H](C)CN(CCCNC(=O)[C@@]2(O)[C@H](C)CC3C4C[C@H](F)C5=CC(=O)C=C[C@]5(C)C4[C@@H](O)C[C@@]32C)[C@H](C)[C@@H](O)[C@]1(C)O (stereo partly drawn)	202 to 204
CC[C@H]1OC(=O)[C@H](C)[C@@H](O)[C@H](C)[C@@H](O[C@@H]2O[C@H](C)C[C@@H](N(C)C)[C@H]2O)[C@](C)(O)C[C@@H](C)CN(CCCNC(=O)[C@@]2(O)[C@H](C)CC3C4C[C@H](F)C5=CC(=O)C=C[C@]5(C)[C@@]4(F)[C@@H](O)C[C@@]32C)[C@H](C)[C@@H](O)[C@]1(C)O (stereo partly drawn)	182
CC[C@H]1OC(=O)[C@H](C)[C@@H](O)[C@H](C)[C@@H](O[C@@H]2O[C@H](C)C[C@@H](N(C)C)[C@H]2O)[C@](C)(O)C[C@@H](C)CN(CCCNC(=O)[C@@]2(O)CCC3C4CCC5=CC(=O)CC[C@]5(C)C4[C@@H](O)C[C@@]32C)[C@H](C)[C@@H](O)[C@]1(C)O (stereo partly drawn)	160 to 161
CC[C@H]1OC(=O)[C@H](C)[C@@H](O)[C@H](C)[C@@H](O[C@@H]2O[C@H](C)C[C@@H](N(C)C)[C@H]2O)[C@](C)(O)C[C@@H](C)CN(CCCNC(=O)[C@@]2(O)[C@H](C)CC3C4CCC5=CC(=O)C=C[C@]5(C)[C@@]4(F)[C@@H](O)C[C@@]32C)[C@H](C)[C@@H](O)[C@]1(C)O (stereo partly drawn)	260 to 265
CC[C@H]1OC(=O)[C@H](C)[C@@H](OC(=O)CCCCOC(=O)[C@@]2(O)[C@H](C)CC3C4CCC5=CC(=O)C=C[C@]5(C)[C@@]4(F)[C@@H](O)C[C@@]32C)[C@H](C)[C@@H](O[C@@H]2O[C@H](C)C[C@@H](N(C)C)[C@H]2OC(C)=O)[C@](C)(O)C[C@@H](C)CN(C)[C@H](C)[C@@H](O)[C@]1(C)O (stereo partly drawn)	174 to 175
CC[C@H]1OC(=O)[C@H](C)[C@@H](O[C@@H]2C[C@](C)(OC)[C@H](O)C(C)O2)[C@H](C)[C@@H](O[C@@H]2O[C@H](C)C[C@@H](N(C)C)[C@H]2OC(=O)CCCCOC(=O)[C@@]2(O)[C@H](C)CC3C4C[C@H](F)C5=CC(=O)C=C[C@]5(C)[C@@]4(F)[C@@H](O)C[C@@]32C)[C@](C)(O)C[C@@H](C)CN(C)[C@H](C)[C@@H](O)[C@]1(C)O (stereo partly drawn)	159 to 160
CC[C@H]1OC(=O)[C@H](C)[C@@H](O[C@@H]2C[C@](C)(OC)[C@H](O)C(C)O2)[C@H](C)[C@@H](O[C@@H]2O[C@H](C)C[C@@H](N(C)C)[C@H]2OC(=O)CCCCOC(=O)[C@@]2(O)[C@H](C)CC3C4CCC5=CC(=O)C=C[C@]5(C)[C@@]4(F)[C@@H](O)C[C@@]32C)[C@](C)(O)C[C@@H](C)CN(C)[C@H](C)[C@@H](O)[C@]1(C)O (stereo partly drawn)	161 to 168
CC[C@H]1OC(=O)[C@H](C)[C@@H](O[C@@H]2C[C@](C)(OC)[C@H](O)C(C)O2)[C@H](C)[C@@H](O[C@@H]2O[C@H](C)C[C@@H](N(C)C)[C@H]2OC(=O)CCCCOC(=O)[C@@]2(O)[C@H](C)CC3C4C[C@H](F)C5=CC(=O)C=C[C@]5(C)[C@@]4(Cl)[C@@H](O)C[C@@]32C)[C@](C)(O)C[C@@H](C)CN(C)[C@H](C)[C@@H](O)[C@]1(C)O (stereo partly drawn)	91 to 99
CC[C@H]1OC(=O)[C@H](C)[C@@H](O)[C@H](C)[C@@H](O[C@@H]2O[C@H](C)C[C@@H](N(C)C)[C@H]2OC(=O)CCCCOC(=O)[C@@]2(O)[C@H](C)CC3C4CCC5=CC(=O)C=C[C@]5(C)[C@@]4(F)[C@@H](O)C[C@@]32C)[C@](C)(O)C[C@@H](C)CN(C)[C@H](C)[C@@H](O)[C@]1(C)O (stereo partly drawn)	170
CC[C@H]1OC(=O)[C@H](C)[C@@H](O)[C@H](C)[C@@H](O[C@@H]2O[C@H](C)C[C@@H](N(C)C)[C@H]2OC(=O)CCCCOC(=O)[C@@]2(O)[C@H](C)CC3C4C[C@H](F)C5=CC(=O)C=C[C@]5(C)C4[C@@H](O)C[C@@]32C)[C@](C)(O)C[C@@H](C)CN(C)[C@H](C)[C@@H](O)[C@]1(C)O (stereo partly drawn)	145 to 151
CC[C@H]1OC(=O)[C@H](C)[C@@H](O[C@@H]2C[C@](C)(OC)[C@H](O)C(C)O2)[C@H](C)[C@@H](O[C@@H]2O[C@H](C)C[C@@H](N(C)C)[C@H]2O)[C@](C)(O)C[C@@H](C)CN(CCCNC(=O)[C@@]2(O)[C@H](C)CC3C4C[C@H](F)C5=CC(=O)C=C[C@]5(C)C4[C@@H](O)C[C@@]32C)[C@H](C)[C@@H](O)[C@]1(C)O (stereo partly drawn)	175 to 178
CC[C@H]1OC(=O)[C@H](C)[C@@H](O)[C@H](C)[C@@H](O[C@@H]2O[C@H](C)C[C@@H](N(C)C)[C@H]2OC(=O)CCCCOC(=O)[C@@]2(O)[C@H](C)CC3C4C[C@H](F)C5=CC(=O)C=C[C@]5(C)[C@@]4(Cl)[C@@H](O)C[C@@]32C)[C@](C)(O)C[C@@H](C)CN(C)[C@H](C)[C@@H](O)[C@]1(C)O (stereo partly drawn) [Compound 27]	130 to 132
